Literature values, collected in article PMC9729070 (Bioorganic & medicinal chemistry letters, 2022).

Legend:
[1] = Phase I clinical trials
[2] = CRPC patients

Structure (SMILES) | bioavailability [1] | survival time prolongation [2]
O=C(Nc1ccc([N+](=O)[O-])cc1Cl)c1cc(Cl)ccc1O [Niclosamide (1), Niclosamide] | unacceptable bioavailability | –
CNC(=O)c1ccc(N2C(=S)N(c3ccc(C#N)c(C(F)(F)F)c3)C(=O)C2(C)C)cc1F [enzalutamide (Xtandi), enzalutamide] | – | five
